pIC50: −log10 of the molar value. Like-named read-outs stand apart in the source and are kept apart here. Bounds are passed on as bounds.

Our source for the IC50 values is US20070275961A1, “Triazolo ' 1, 5-A ! Pyrimidines and Their Use in Medicine” (VERNALIS (CAMBRIDGE) LIMITED., priority 2003, published 2007).

Holding throughout (type): biochemical
For test [1], the target named is CDK2 enzyme, complexed with cyclin A (Homo sapiens, UniProt P24941). Description: CDK2 cyclin dependent kinase assay, phosphorylation of synthetic peptide […] (33P-ATP filtration). Particulars: 0.1 mM ATP.
Test [2] concerns the target T1, PDK1 enzyme (Homo sapiens, UniProt O15530).
T1 sequence (O15530 1-556): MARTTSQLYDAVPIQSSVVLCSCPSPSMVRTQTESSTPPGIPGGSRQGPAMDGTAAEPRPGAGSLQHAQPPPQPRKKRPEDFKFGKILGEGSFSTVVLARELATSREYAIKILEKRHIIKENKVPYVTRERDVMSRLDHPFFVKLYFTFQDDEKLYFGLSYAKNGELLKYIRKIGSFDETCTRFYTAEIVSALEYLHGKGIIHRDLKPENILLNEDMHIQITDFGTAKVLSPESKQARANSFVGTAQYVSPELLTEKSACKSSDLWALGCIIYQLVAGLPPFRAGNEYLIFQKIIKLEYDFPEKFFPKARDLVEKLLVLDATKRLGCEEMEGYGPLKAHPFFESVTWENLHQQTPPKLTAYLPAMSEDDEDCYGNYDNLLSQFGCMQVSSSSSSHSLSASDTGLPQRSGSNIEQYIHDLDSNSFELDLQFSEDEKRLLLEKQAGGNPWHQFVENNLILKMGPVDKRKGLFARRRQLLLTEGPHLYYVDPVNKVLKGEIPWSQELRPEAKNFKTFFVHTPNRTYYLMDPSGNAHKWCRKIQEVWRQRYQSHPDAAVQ
Kind of test: PDK1 3'-phosphoinositide-dependent kinase assay, phosphorylation of synthetic peptide (33P-ATP filtration). Particulars: 0.01 mM ATP, read-out: PDK1 IC50. Put shortly:
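Radiometric peptide phosphorylation by PDK1 with inhibitor, 60 min at 30 °C, using 0.01 mM ATP plus 33P-γ-ATP, 0.075 mM peptide, 7.5 mM Mg acetate in Tris-HCl pH 7.5. Phosphoric acid stopped reaction; phosphorylated peptide captured on filter plates and counted by scintillation.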

For test [3], the target named is T2, Chk1 (Homo sapiens, UniProt O14757).
T2 sequence (O14757 1-476): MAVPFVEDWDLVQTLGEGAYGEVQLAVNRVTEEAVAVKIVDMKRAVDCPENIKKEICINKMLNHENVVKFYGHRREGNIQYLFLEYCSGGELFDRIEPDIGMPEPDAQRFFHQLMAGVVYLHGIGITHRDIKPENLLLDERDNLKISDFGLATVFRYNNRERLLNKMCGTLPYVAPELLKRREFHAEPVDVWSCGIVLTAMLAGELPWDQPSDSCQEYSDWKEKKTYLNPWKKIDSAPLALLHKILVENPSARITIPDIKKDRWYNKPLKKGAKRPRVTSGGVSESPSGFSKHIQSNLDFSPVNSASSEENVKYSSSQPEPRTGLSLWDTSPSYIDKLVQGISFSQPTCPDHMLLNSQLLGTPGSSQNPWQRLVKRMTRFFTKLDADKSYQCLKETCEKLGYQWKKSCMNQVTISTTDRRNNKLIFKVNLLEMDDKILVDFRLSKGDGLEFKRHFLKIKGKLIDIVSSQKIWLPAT
Description: Chk1 kinase assay, phosphorylation of Chktide (33P-ATP filtration). Particulars: 0.01 mM ATP, read-out: Chk1 IC50. Put shortly: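 GST-Chk1 (11 nM) with inhibitor, 30 μM Chktide peptide, 0.01 mM ATP plus 33P-γ-ATP in 50 mM Hepes pH 7.5 with 0.1 mg/ml BSA, 40 min at 30° C. Stopped with phosphoric acid; phosphorylated peptide captured on filter plates and scintillation-counted.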

The pIC50 is −log10 of the IC50, conventionally taken in molar units. Turning to `CC[C@H](CO)Nc1cc(Nc2ccc(S(C)(=O)=O)cc2)n2ncnc2n1` [Example 69], the pIC50 was 5.74 in test [1] (Table 2), below 3.70 in test [2] (Table 2) and below 3.70 in test [3] (Table 2).

Take `NC(=O)c1ccc(Nc2cc(-c3ccc4c(c3)OCO4)n3ncnc3n2)cc1` [Example 137]: the results for the pIC50 in test [1] (Table 3), in test [2] (Table 3) and in test [3] (Table 3) were below 3.70, 4.54 and 4.85, respectively.

Take `CN(C)c1ccc(Nc2cc(Cl)nc3ncnn23)cc1` [Example 21]: the pIC50 in test [1] (Table 1) is 4.23; in test [2] (Table 1), below 3.70; in test [3] (Table 1), below 3.70.

Consider `CCCc1cc(Nc2ccc(S(C)(=O)=O)cc2)n2ncnc2n1` [Example 74], for which the figures for the pIC50 in test [1] (Table 2), in test [2] (Table 2) and in test [3] (Table 2) were 4.85, below 3.70 and below 3.70, respectively.

For `NS(=O)(=O)c1ccc(Nc2cc(N3CCC(O)CC3)nc3ncnn23)cc1` [Example 19], the pIC50 in test [1] (Table 1) is 6.00; in test [2] (Table 1) it was below 3.70; in test [3] (Table 1), below 3.70.

Regarding `Oc1ccccc1-c1cc(Nc2ccc3cn[nH]c3c2)n2ncnc2n1` [Example 60], the pIC50 in test [1] (Table 2) was 5.72; in test [2] (Table 2), below 3.70; in test [3] (Table 2), below 3.70.

Take `N#Cc1ccc(Nc2cc(Cl)nc3ncnn23)cc1` [Example 41]: the pIC50 in test [1] (Table 1) is 4.21; in test [2] (Table 1), below 3.70; in test [3] (Table 1), below 3.70.

For the compound `CC(C)c1cc(Nc2ccc(S(C)(=O)=O)cc2)n2ncnc2n1` [Example 78], the pIC50 in test [1] (Table 2) was 5.13; in test [2] (Table 2), below 3.70; in test [3] (Table 2), below 3.70.

Take `CCN(CC)c1cc(Nc2ccc(S(=O)(=O)C(F)(F)F)cc2)n2ncnc2n1` [Example 70]: the values for the pIC50 in test [1] (Table 2), in test [2] (Table 2) and in test [3] (Table 2) were 5.57, below 3.70 and below 3.70, respectively.

Turning to `O=C(O)c1ccc(Nc2cc(Cl)nc3ncnn23)cc1` [Example 25], the pIC50 in test [1] (Table 1) is 4.03; in test [2] (Table 1) it was below 3.70; in test [3] (Table 1), below 3.70.

As to `NC(=O)c1ccc(Nc2cc(-c3cccc(OCc4cccnc4)c3)n3ncnc3n2)cc1` [Example 145], the pIC50 is 4.64 in test [1] (Table 4), 5.76 in test [2] (Table 4) and 5.01 in test [3] (Table 4).

Regarding `Clc1cc(Nc2ccc3cn[nH]c3c2)n2ncnc2n1` [Example 48], the pIC50 in test [1] (Table 1) was 4.87; in test [2] (Table 1) it was below 3.70; in test [3] (Table 1), below 3.70.

As for `CCN(CC)c1cc(Nc2ccc(S(C)(=O)=O)cc2)n2ncnc2n1` [Example 65], the values for the pIC50 in test [1] (Table 2), in test [2] (Table 2) and in test [3] (Table 2) were 6.03, below 3.70 and below 3.70, respectively.

`CCN(CC)CCNC(=O)c1ccc(Nc2cc(Cc3ccccc3)n3ncnc3n2)cc1` [Example 124]: the values for the pIC50 in test [1] (Table 3), in test [2] (Table 3) and in test [3] (Table 3) were below 3.70, below 3.70 and 4.80, respectively.

For `CCOC(=O)c1ccc(Nc2cc(-c3cccc(O)c3)nc3ncnn23)cc1` [Example 50], the values for the pIC50 in test [1] (Table 1), in test [2] (Table 1) and in test [3] (Table 1) were 4.50, below 3.70 and below 3.70, respectively.

`Cc1ccc(-c2cc(Nc3ccc(C(N)=O)cc3)nc3ncnn23)cc1` [Example 138]: the pIC50 was below 3.70 in test [1] (Table 3), 5.38 in test [2] (Table 3) and 4.58 in test [3] (Table 3).

In the case of `NC(=O)c1sccc1Nc1cc(-c2ccsc2)nc2ncnn12` [Example 44], the figures for the pIC50 in test [1] (Table 1), in test [2] (Table 1) and in test [3] (Table 1) were 4.22, below 3.70 and below 3.70, respectively.

As to `CCN(CC)c1cc(Nc2ccc(C(N)=O)cc2)n2ncnc2n1` [Example 92], the pIC50 is 5.83 in test [1] (Table 2), below 3.70 in test [2] (Table 2) and below 3.70 in test [3] (Table 2).

Consider `NC(=O)c1cccc(Nc2cc(-c3cccc(F)c3)n3ncnc3n2)c1` [Example 134], for which the negative logarithm of the IC50 (pIC50) is below 3.70 in test [1] (Table 3), 5.09 in test [2] (Table 3) and 4.63 in test [3] (Table 3).

In the case of `CS(=O)(=O)c1ccc(CNc2cc(N[C@H]3CC[C@H](N)CC3)nc3ncnn23)cc1` [Example 100], the pIC50 in test [1] (Table 2) is 5.53; in test [2] (Table 2) it was below 3.70; in test [3] (Table 2), below 3.70.

Take `CS(=O)(=O)c1ccc(Nc2cc(NC3CCCC3)nc3ncnn23)cc1` [Example 96]: the pIC50 in test [1] (Table 2) is 5.65; in test [2] (Table 2), below 3.70; in test [3] (Table 2) it was below 3.70.

As to `N[C@H]1CC[C@H](Nc2cc(Nc3ccc(S(=O)(=O)c4ccccc4)cc3)n3ncnc3n2)CC1` [Example 98], the values for the negative-log IC50 (pIC50) in test [1] (Table 2), in test [2] (Table 2) and in test [3] (Table 2) were 6.59, 4.85 and 5.66, respectively.

As to `Cc1cccc(-c2cc(Nc3ccc(C(N)=O)cc3)nc3ncnn23)c1` [Example 104], the values for the pIC50 in test [1] (Table 3), in test [2] (Table 3) and in test [3] (Table 3) were below 3.70, 5.39 and 4.83, respectively.

`NS(=O)(=O)c1cccc(Nc2cc(Cl)nc3ncnn23)c1` [Example 52]: the pIC50 in test [1] (Table 1) is 4.39; in test [2] (Table 1) it was below 3.70; in test [3] (Table 1) it was below 3.70.

On to `N#Cc1ccc(Nc2cc(-c3cccc(F)c3)n3ncnc3n2)cc1` [Example 112], for which the values for the pIC50 in test [1] (Table 3), in test [2] (Table 3) and in test [3] (Table 3) were 3.92, 4.29 and below 3.70, respectively.

In the case of `Clc1cccc(-c2cc(Nc3ccc4c(c3)OCO4)n3ncnc3n2)c1` [Example 33], the figures for the negative-log IC50 (pIC50) in test [1] (Table 1), in test [2] (Table 1) and in test [3] (Table 1) were 4.54, below 3.70 and 4.62, respectively.

For the compound `COc1ccc(Nc2cc(Cl)nc3ncnn23)cn1` [Example 42], the pIC50 in test [1] (Table 1) is 4.93; in test [2] (Table 1) it was below 3.70; in test [3] (Table 1) it was below 3.70.

Consider `NC(=O)Cc1ccc(Nc2cc(-c3cccc(F)c3)n3ncnc3n2)cc1` [Example 139], for which the pIC50 in test [1] (Table 3) is below 3.70; in test [2] (Table 3), 5.95; in test [3] (Table 3) it was 5.42.

As for `Cc1cc(Nc2ccc(C(N)=O)cc2)nc2ncnn12` [Example 114], the figures for the pIC50 in test [1] (Table 3), in test [2] (Table 3) and in test [3] (Table 3) were below 3.70, below 3.70 and 5.19, respectively.

For `Clc1cc(Nc2ccccc2)n2ncnc2n1` [Example 75], the pIC50 was 4.20 in test [1] (Table 2), below 3.70 in test [2] (Table 2) and below 3.70 in test [3] (Table 2).

As to `NS(=O)(=O)c1ccc(Nc2cc(Cl)nc3ncnn23)cc1` [Example 1, 7-(4-Aminosulfonylphenylamino)-5-chlorotriazolol[1,5-a]pyrimidine], the pIC50 in test [1] (Table 1) is 4.70; in test [2] (Table 1), below 3.70; in test [3] (Table 1), below 3.70.

Take `CCN(CC)CCNC(=O)c1ccc(Nc2cc(-c3cccc(C)c3)n3ncnc3n2)cc1` [Example 105]: the pIC50 was below 3.70 in test [1] (Table 3), 5.21 in test [2] (Table 3) and 5.26 in test [3] (Table 3).

Consider `CCOc1cc(Nc2ccc(S(N)(=O)=O)cc2)n2ncnc2n1` [Example 62], for which the figures for the pIC50 in test [1] (Table 2), in test [2] (Table 2) and in test [3] (Table 2) were 4.89, below 3.70 and below 3.70, respectively.

Regarding `NS(=O)(=O)c1ccc(Nc2cc(NCC3CCCCC3)nc3ncnn23)cc1` [Example 59], the figures for the pIC50 in test [1] (Table 2), in test [2] (Table 2) and in test [3] (Table 2) were 5.41, 3.93 and 3.93, respectively.

`C[C@H]1CCCC(Oc2cc(Nc3ccc(S(N)(=O)=O)cc3)n3ncnc3n2)C1` (stereo partly drawn) [Example 5]: the pIC50 in test [1] (Table 1) is 5.19; in test [2] (Table 1), below 3.70; in test [3] (Table 1), below 3.70.

Turning to `Fc1cccc(-c2cc(Nc3ccc(N4CCOCC4)cc3)nc3ncnn23)c1` [Example 113], the pIC50 in test [1] (Table 3) was below 3.70; in test [2] (Table 3), 4.33; in test [3] (Table 3), 5.25.

`O=S(=O)(c1ccccc1)c1ccc(Nc2cc(Cl)nc3ncnn23)cc1` [Example 88]: the pIC50 in test [1] (Table 2) was 5.22; in test [2] (Table 2), below 3.70; in test [3] (Table 2) it was 4.92.

With `O=S(=O)(c1ccc(Nc2cc(-c3cccc(F)c3)n3ncnc3n2)cc1)N1CCOCC1` [Example 130], the pIC50 in test [1] (Table 3) was below 3.70; in test [2] (Table 3), 4.47; in test [3] (Table 3), 4.57.
